In patent US12084437B2, “Halo-substituted piperidines as orexin receptor modulators” (AstraZeneca AB, priority 2016, dated 2024):

Experiments:
[1] = target: T1, OX1 (Homo sapiens, UniProt O43613); assay: Orexin receptor cell-based functional assay, [Ca2+]i by FLIPR, CHO-OX1 cells; settings: FLIPR calcium, antagonism of EC90 of [OX], read-out: OXI, IC50
T1 construct: expressed in transfected cells; host or cells: CHO (CHO-OX1)
T1 sequence (O43613 1-425): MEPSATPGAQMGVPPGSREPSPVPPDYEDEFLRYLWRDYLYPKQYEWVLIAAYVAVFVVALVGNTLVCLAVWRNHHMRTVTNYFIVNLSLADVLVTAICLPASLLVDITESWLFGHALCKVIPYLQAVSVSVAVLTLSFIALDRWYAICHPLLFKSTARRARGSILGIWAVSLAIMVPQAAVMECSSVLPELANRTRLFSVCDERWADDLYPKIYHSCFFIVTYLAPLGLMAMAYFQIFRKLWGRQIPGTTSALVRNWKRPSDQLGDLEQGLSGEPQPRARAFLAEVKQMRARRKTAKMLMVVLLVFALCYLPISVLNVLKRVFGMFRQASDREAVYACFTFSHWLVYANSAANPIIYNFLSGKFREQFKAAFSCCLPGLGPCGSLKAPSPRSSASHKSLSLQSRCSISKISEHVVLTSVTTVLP

[2] = target: T2, OX2 (Homo sapiens, UniProt O43614); assay: Orexin receptor cell-based functional assay, [Ca2+]i by FLIPR, CHO-OX2 cells; settings: FLIPR calcium, antagonism of EC90 of [OX]
T2 construct: expressed in transfected cells; host or cells: CHO (CHO-OX2)
T2 sequence (O43614 1-444): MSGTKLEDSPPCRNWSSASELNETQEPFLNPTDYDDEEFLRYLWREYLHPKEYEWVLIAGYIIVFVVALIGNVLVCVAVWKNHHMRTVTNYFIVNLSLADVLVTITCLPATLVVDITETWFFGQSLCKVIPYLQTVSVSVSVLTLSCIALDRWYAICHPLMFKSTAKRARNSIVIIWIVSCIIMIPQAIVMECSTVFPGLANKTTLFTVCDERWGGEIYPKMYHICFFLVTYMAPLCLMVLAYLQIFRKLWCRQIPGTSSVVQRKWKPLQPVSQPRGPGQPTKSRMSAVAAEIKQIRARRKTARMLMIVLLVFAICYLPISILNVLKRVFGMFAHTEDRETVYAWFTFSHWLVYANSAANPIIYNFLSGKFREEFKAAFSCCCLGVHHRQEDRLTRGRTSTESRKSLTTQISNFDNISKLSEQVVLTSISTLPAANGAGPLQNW
Outline: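 CHO cells expressing human OX1 or OX2 (20,000/well, grown overnight) were loaded with Calcium6 dye plus 2.5 mM probenecid for 2 h at 37 °C, then preincubated 30 min with compound (0.1 nM–10 µM). FLIPR fluorescence (ex 488/em 540 nm) was tracked before and after an EC90 orexin challenge.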

Row | IC50 [1] | IC50 [2] | Structure (SMILES)
1 | 120 nM | > 5000 nM | Cc1cnc(-c2cn(C)nc2C(=O)N2CC(F)(F)C[C@@H](C)[C@H]2CNc2ncc(C(F)(F)F)cn2)nc1 [Compound 219, ((2S,3R)-5,5-difluoro-3-methyl-2-(((5-(trifluoromethyl)pyrimidin-2-yl)amino)methyl)piperidin-1-yl)(1-methyl-4-(5-methylpyrimidin-2-yl)-1H-pyrazol-3-yl)methanone]
2 | 2 nM | > 5000 nM | C[C@@H]1CC(F)(F)CN(C(=O)c2nn(C)cc2-c2ccc(Cl)cn2)[C@@H]1CNc1ncc(C(F)(F)F)cn1 [Compound 221, (4-(5-chloropyridin-2-yl)-1-methyl-1H-pyrazol-3-yl)((2S,3R)-5,5-difluoro-3-methyl-2-(((5-(trifluoromethyl)pyrimidin-2-yl)amino)methyl)piperidin-1-yl)methanone]
3 | 62 nM | > 5000 nM | C[C@@H]1CC(F)(F)CN(C(=O)c2nn(C)cc2-c2cnccn2)[C@@H]1CNc1ncc(C(F)(F)F)cn1 [Compound 224, ((2S,3R)-5,5-difluoro-3-methyl-2-(((5-(trifluoromethyl)pyrimidin-2-yl)amino)methyl)piperidin-1-yl)(1-methyl-4-(pyrazin-2-yl)-1H-pyrazol-3-yl)methanone]
4 | 17 nM | > 5000 nM | Cc1ccnc(-c2cn(C)nc2C(=O)N2CC(F)(F)C[C@@H](C)[C@H]2CNc2ncc(C(F)(F)F)cn2)n1 [Compound 225, ((2S,3R)-5,5-difluoro-3-methyl-2-(((5-(trifluoromethyl)pyrimidin-2-yl)amino)methyl)piperidin-1-yl)(1-methyl-4-(4-methylpyrimidin-2-yl)-1H-pyrazol-3-yl)methanone]
5 | 350 nM | > 5000 nM | C[C@@H]1CC(F)(F)CN(C(=O)c2nn(C)cc2-c2ncc(C(F)(F)F)cn2)[C@@H]1CNc1ncc(C(F)(F)F)cn1 [Compound 226, ((2S,3R)-5,5-difluoro-3-methyl-2-(((5-(trifluoromethyl)pyrimidin-2-yl)amino)methyl)piperidin-1-yl)(1-methyl-4-(5-(trifluoromethyl)pyrimidin-2-yl)-1H-pyrazol-3-yl)methanone]
6 | 74 nM | > 5000 nM | C[C@@H]1CC(F)(F)CN(C(=O)c2nn(C)cc2-c2cncnc2)[C@@H]1CNc1ncc(C(F)(F)F)cn1 [Compound 230, ((2S,3R)-5,5-difluoro-3-methyl-2-(((5-(trifluoromethyl)pyrimidin-2-yl)amino)methyl)piperidin-1-yl)(1-methyl-4-(pyrimidin-5-yl)-1H-pyrazol-3-yl)methanone]

More lines, now with the values behind:

Row | Structure (SMILES) | IC50 [1] | IC50 [2]
7 | C[C@@H]1CC(F)(F)CN(C(=O)c2nn(C)cc2-c2ccccn2)[C@@H]1COc1ccc(C(F)(F)F)cn1 [Compound 220, ((2S,3R)-5,5-difluoro-3-methyl-2-(((5-(trifluoromethyl)pyridin-2-yl)oxy)methyl)piperidin-1-yl)(1-methyl-4-(pyridin-2-yl)-1H-pyrazol-3-yl)methanone] | 8 nM | > 5000 nM
8 | C[C@@H]1CC(F)(F)CN(C(=O)c2nn(C)cc2-c2ncccn2)[C@@H]1COc1ncc(C(F)(F)F)cn1 [Compound 222, ((2S,3R)-5,5-difluoro-3-methyl-2-(((5-(trifluoromethyl)pyrimidin-2-yl)oxy)methyl)piperidin-1-yl)(1-methyl-4-(pyrimidin-2-yl)-1H-pyrazol-3-yl)methanone] | 26 nM | > 5000 nM
9 | C[C@@H]1CC(F)(F)CN(C(=O)c2nn(C)cc2-c2ncccn2)[C@@H]1COc1cnc(C(F)(F)F)cn1 [Compound 223, ((2S,3R)-5,5-difluoro-3-methyl-2-(((5-(trifluoromethyl)pyrazin-2-yl)oxy)methyl)piperidin-1-yl)(1-methyl-4-(pyrimidin-2-yl)-1H-pyrazol-3-yl)methanone] | 52 nM | > 5000 nM
10 | C[C@@H]1CC(F)(F)CN(C(=O)c2nn(C)cc2-c2cc(Cl)ccn2)[C@@H]1CNc1ncc(C(F)(F)F)cn1 [Compound 227, (4-(4-chloropyridin-2-yl)-1-methyl-1H-pyrazol-3-yl)((2S,3R)-5,5-difluoro-3-methyl-2-(((5-(trifluoromethyl)pyrimidin-2-yl)amino)methyl)piperidin-1-yl)methanone] | 14 nM | > 5000 nM
11 | C[C@@H]1CC(F)(F)CN(C(=O)c2nn(C)cc2-c2ncccn2)[C@@H]1CNc1ncc(C(F)(F)F)cc1F [Compound 228, ((2S,3R)-5,5-difluoro-2-(((3-fluoro-5-(trifluoromethyl)pyridin-2-yl)amino)methyl)-3-methylpiperidin-1-yl)(1-methyl-4-(pyrimidin-2-yl)-1H-pyrazol-3-yl)methanone] | 14 nM | > 5000 nM
12 | C[C@@H]1CC(F)(F)CN(C(=O)c2nn(C)cc2-c2cccc(C(F)(F)F)n2)[C@@H]1CNc1ncc(C(F)(F)F)cn1 [Compound 229, ((2S,3R)-5,5-difluoro-3-methyl-2-(((5-(trifluoromethyl)pyrimidin-2-yl)amino)methyl)piperidin-1-yl)(1-methyl-4-(6-(trifluoromethyl)pyridin-2-yl)-1H-pyrazol-3-yl)methanone] | 7 nM | > 5000 nM
13 | Cc1ccc(-c2ccc(C)nc2C(=O)N2CC(F)(F)C[C@@H](C)[C@H]2CNc2ncc(C(F)(F)F)cn2)nc1 [Compound 231, ((2S,3R)-5,5-difluoro-3-methyl-2-(((5-(trifluoromethyl)pyrimidin-2-yl)amino)methyl)piperidin-1-yl)(5,6′-dimethyl-[2,3′-bipyridin]-2′-yl)methanone] | 14 nM | > 5000 nM
14 | CCn1cc(-c2ncccn2)c(C(=O)N2CC(F)(F)C[C@@H](C)[C@H]2CNc2ncc(C(F)(F)F)cn2)n1 [Compound 232, ((2S,3R)-5,5-difluoro-3-methyl-2-(((5-(trifluoromethyl)pyrimidin-2-yl)amino)methyl)piperidin-1-yl)(1-ethyl-4-(pyrimidin-2-yl)-1H-pyrazol-3-yl)methanone] | 82 nM | > 5000 nM
15 | Cc1c(-c2ncccn2)c(C(=O)N2CC(F)(F)C[C@@H](C)[C@H]2CNc2ncc(C(F)(F)F)cn2)nn1C [Compound 233, ((2S,3R)-5,5-difluoro-3-methyl-2-(((5-(trifluoromethyl)pyrimidin-2-yl)amino)methyl)piperidin-1-yl)(1,5-dimethyl-4-(pyrimidin-2-yl)-1H-pyrazol-3-yl)methanone] | 1 nM | > 5000 nM
16 | Cc1ccc(C#CC2CC2)c(C(=O)N2CC(F)(F)C[C@@H](C)[C@H]2CNc2ncc(C(F)(F)F)cn2)n1 [Compound 234, (3-(cyclopropylethynyl)-6-methylpyridin-2-yl)((2S,3R)-5,5-difluoro-3-methyl-2-(((5-(trifluoromethyl)pyrimidin-2-yl)amino)methyl)piperidin-1-yl)methanone] | 29 nM | > 5000 nM
17 | CC#Cc1ccc(C)nc1C(=O)N1CC(F)(F)C[C@@H](C)[C@H]1CNc1ncc(C(F)(F)F)cn1 [Compound 235, ((2S,3R)-5,5-difluoro-3-methyl-2-(((5-(trifluoromethyl)pyrimidin-2-yl)amino)methyl)piperidin-1-yl)(6-methyl-3-(prop-1-yn-1-yl)pyridin-2-yl)methanone] | 250 nM | > 5000 nM
18 | CC(C)n1cc(-c2ncccn2)c(C(=O)N2CC(F)(F)C[C@@H](C)[C@H]2CNc2ncc(C(F)(F)F)cn2)n1 [Compound 237, ((2S,3R)-5,5-difluoro-3-methyl-2-(((5-(trifluoromethyl)pyrimidin-2-yl)amino)methyl)piperidin-1-yl)(1-isopropyl-4-(pyrimidin-2-yl)-1H-pyrazol-3-yl)methanone] | 1700 nM | > 5000 nM
19 | C[C@@H]1CC(F)(F)CN(C(=O)c2nn(CC(F)(F)F)cc2-c2ncccn2)[C@@H]1CNc1ncc(C(F)(F)F)cn1 [Compound 238, ((2S,3R)-5,5-difluoro-3-methyl-2-(((5-(trifluoromethyl)pyrimidin-2-yl)amino)methyl)piperidin-1-yl)(4-(pyrimidin-2-yl)-1-(2,2,2-trifluoroethyl)-1H-pyrazol-3-yl)methanone] | > 2000 nM | > 5000 nM
20 | CCc1cnc(NC[C@@H]2[C@H](C)CC(F)(F)CN2C(=O)c2nc(C)sc2-c2ccc(F)cc2)nc1 [Compound 239, ((2S,3R)-2-(((5-ethylpyrimidin-2-yl)amino)methyl)-5,5-difluoro-3-methylpiperidin-1-yl)(5-(4-fluorophenyl)-2-methylthiazol-4-yl)methanone] | 29 nM | > 5000 nM
